Measured values as given in patent US7601756B2, “Method of treatment for irritable bowel syndrome” (Snowden Pharmaceuticals, LLC, priority 2003, dated 2009).

How the values were obtained:
[1] = system: irritable bowel syndrome (IBS) symptoms; assay: Patient subjective evaluation of IBS symptoms before and after treatment (case studies); format: in vivo, human
Description: Each patient subjectively evaluated his or her symptoms both before and after treatment on a scale from 0 to 10 with 0 representing the absence of symptoms and 10 indicating the most severe symptoms. […] Patient 2 also was treated with Gemfibrozil 600 mg twice daily. […] Patient 3 was originally treated with Gemfibrozil 600 mg twice daily.

[2] = system: HDL (high density lipoprotein) level; assay: HDL level of Patient 1 after treatment; format: in vivo, human; details: Gemfibrozil 600 mg twice a day, later testing
Description: Patient 1 suffered from a variety of conditions including diabetes, post traumatic attention deficit disorder, and irritable bowel syndrome. […] However, upon resuming the Gemfibrozil treatment, the levels were again reduced.

[3] = Patient 1, Gemfibrozil 600 mg twice a day, within a day, scale 0 to 10, before 8
[4] = Patient 2, Gemfibrozil 600 mg twice daily, after 1.5 days, scale 0 to 10, before 0
[5] = Patient 3, Gemfibrozil 600 mg twice daily, after 2 days, scale 0 to 10, before 7

CC(C)OC(=O)C(C)(C)Oc1ccc(C(=O)c2ccc(Cl)cc2)cc1 [micronized fenofibrate, 2-(4-(4-chlorobenzoyl)phenoxy)-2-methyl-propanoic acid 1-methyl ethyl ester]
Patient evaluation of symptoms in all categories ([1]; Patient 3, micronized fenofibrate 200 mg daily, after discontinuing Gemfibrozil, scale 0 to 10): 0

Cc1ccc(C)c(OCCCC(C)(C)C(=O)O)c1 [Gemfibrozil, 5-(2,5-dimethylphenoxy)-2,2-dimethylpentanoic acid]
Change of evaluation of IBS symptoms ([1]; Patient 1, Gemfibrozil 600 mg twice a day, within a day): significant improvement | Patient evaluation of symptoms: Gas (After) ([1]; Patient 1, Gemfibrozil 600 mg twice a day, within a day, scale 0 to 10 (0 absence, 10 most severe), before 4): 1 | Patient evaluation of symptoms: Constipation (After) ([1]; Patient 1, Gemfibrozil 600 mg twice a day, within a day, scale 0 to 10, before 0): 0 | Patient evaluation of symptoms: Overall (After) ([1]; Patient 1, Gemfibrozil 600 mg twice a day, within a day, scale 0 to 10, before 6.5): 1 | Patient evaluation of symptoms: Cramps/Pain (After) [1, 3]: 1 | Patient evaluation of symptoms: Mucus (After) [1, 3]: 2 | Patient evaluation of symptoms: Diarrhea (After) ([1]; Patient 1, Gemfibrozil 600 mg twice a day, within a day, scale 0 to 10, before 9): 1 | IBS symptom levels upon resuming treatment ([1]; Patient 1, Gemfibrozil treatment resumed): again reduced | IBS symptoms on discontinued use ([1]; Patient 1, use of Gemfibrozil discontinued): returned to the before levels | Side effect experienced under treatment ([1]; Patient 2, Gemfibrozil 600 mg twice daily): occasional constipation | IBS symptoms after treatment ([1]; Patient 2, Gemfibrozil 600 mg twice daily, after 1.5 days of treatment): virtually disappeared | Patient evaluation of symptoms: Gas (After) ([1]; Patient 2, Gemfibrozil 600 mg twice daily, after 1.5 days of treatment, scale 0 to 10, before 4.5): 0 | Patient evaluation of symptoms: Constipation (After) [1, 4]: 3 | Patient evaluation of symptoms: Mucus (After) [1, 4]: 0 | Patient evaluation of symptoms: Cramps/Pain (After) ([1]; Patient 2, Gemfibrozil 600 mg twice daily, after 1.5 days, scale 0 to 10, before 5): 0 | Patient evaluation of symptoms: Diarrhea (After) ([1]; Patient 2, Gemfibrozil 600 mg twice daily, after 1.5 days, scale 0 to 10, before 8.5): 0 | Patient evaluation of symptoms: Overall (After) ([1]; Patient 2, Gemfibrozil 600 mg twice daily, after 1.5 days, scale 0 to 10, before 9): 1 | IBS symptoms after treatment ([1]; Patient 3, Gemfibrozil 600 mg twice daily, after 2 days of treatment): greatly improved | Patient evaluation of symptoms: Gas (After) ([1]; Patient 3, Gemfibrozil 600 mg twice daily, after 2 days of treatment, scale 0 to 10, before 3): 1 | Patient evaluation of symptoms: Constipation (After) ([1]; Patient 3, Gemfibrozil 600 mg twice daily, after 2 days, scale 0 to 10, before 0): 0 | Patient evaluation of symptoms: Mucus (After) ([1]; Patient 3, Gemfibrozil 600 mg twice daily, after 2 days, scale 0 to 10, before 3): 0 | Patient evaluation of symptoms: Cramps/Pain (After) [1, 5]: 2 | Patient evaluation of symptoms: Overall (After) [1, 5]: 2 | Patient evaluation of symptoms: Diarrhea (After) ([1]; Patient 3, Gemfibrozil 600 mg twice daily, after 2 days, scale 0 to 10, before 9): 3 | HDL level after treatment [2]: increased
